Source: US12551424B2, “Oil-in-water type emulsification composition containing UV wavelength conversion substance” (Shiseido Company, Ltd., priority 2019, dated 2026)

Experiments:
[1] = tested on: Human dermal fibroblasts; assay: Restoration of cell activity decreased by prior UV irradiation (AlamarBlue); type: cell-based; details: FIG. 5
Method: (§1) A cell sample was prepared as follows: • 1. Human dermal fibroblasts and human skin keratinocytes purchased from Kurabo Industries Ltd. were used. A cell suspension (1 mL) stored in liquid nitrogen was thawed in a water bath (37° C.) to an extent that small ice pellets remained, and then diluted with 9 mL of warm medium. • 2. The diluted suspension was mixed gently and then transferred to a T75 flask and incubated overnight at 37° C. • 3. The next day, the medium was replaced with 10 mL of fresh medium. • 4. The medium was replaced periodically (once every 2 days for fibroblasts and once every 2 to 3 days for keratinocytes) and cell proliferation was continued. Meanwhile, the cells were observed using a microscope, and it was confirmed that the cells grew in the correct form. • 5. After the cells reached about 80% confluence, the cells were passaged. The cells were passaged by washing the cells once with 10 mL of warm PBS, adding 5 mL of warm trypsin to a T75 flask, covering the bottom of the flask with a trypsin solution, followed by aspirating at room temperature for 1 minute. • 6. The flask was allowed to stand in an oven at 37° C. for (maximum) 2 minutes for fibroblasts and (maximum) 7 minutes for keratinocytes. The cells were observed using a microscope and confirmed to be small and oval. • 7. Thereafter, the side of the T75 flask was lightly tapped to release the cells. […]

[2] = tested on: Human dermal fibroblasts; assay: Cell activity (AlamarBlue) after UV irradiation through a solution of the UV wavelength conversion substance; type: cell-based; details: UV 0, 10, 25, 50, 75 or 100 mJ/cm^2, FIG. 3
Method: as §1

## C-phycocyanin
[1]; 0.4% versus 2% C-phycocyanin after 400 mJ/cm^2 pre-irradiation
  cell activity recovery effect, comparison of concentrations: equivalent at concentrations of 0.4% and 2%
[1]; pre-irradiation 400 mJ/cm^2 without substance, then UV 0-200 mJ/cm^2 through 0.4% or 2% C-phycocyanin
  cell activity (relative fluorescence intensity) of cells with once decreased activity: cell activity was recovered
[2]; 0.4% C-phycocyanin solution
  cell activity (relative fluorescence intensity): the decrease in cell activity was suppressed
[2]; 2% C-phycocyanin solution
  cell activity (relative fluorescence intensity): the cell activity was even increased
